Data reported in the NIST ThermoML archive (doi:10.1016/j.jct.2018.08.021).
± gives the expanded uncertainty stated by the source.

Test: osmotic coefficient (dimensionless); mn = molality of the nth substance listed, in mol/kg
Conditions: 303.15 K, 101.3 kPa, Liquid, Vapor-pressure osmometry (Knauer K-7000)

osmotic coefficient (m1 = 0.0476): 0.809 ± 0.064
osmotic coefficient (m1 = 0.0572): 0.804 ± 0.065
osmotic coefficient (m1 = 0.0765): 0.771 ± 0.066
osmotic coefficient (m1 = 0.0951): 0.73 ± 0.067
Structure (SMILES): NC(=O)c1ccc[n+]([C@@H]2O[C@H](COP(=O)([O-])OP(=O)(O)OC[C@H]3O[C@@H](n4cnc5c(N)ncnc54)[C@H](O)[C@@H]3O)[C@@H](O)[C@H]2O)c1 [β-nicotinamide adenine dinucleotide] + O
